Laboratory results taken from PMC7217877, “N-AS-triggered SPMs are direct regulators of microglia in a model of Alzheimer’s disease” (Nature Communications, 2020).
Several values for one entry are separate records, joined by “and”; a condition that tells them apart may be missing. Identical values can stand only once.

How the values were obtained:
[1] = target: T1, CYP 3A4 (Homo sapiens, UniProt P08684); experiment: cytochrome P450 inhibition in human liver microsomes; assay type: in vitro ADME
T1 construct: from tissue; host or cells: human liver microsomes
Procedure: (§1) A 10 μl aliquot of this solution was then diluted using 90 μl of 100 mM potassium phosphate buffer (pH 7.4). Probe substrate cocktail solutions for seven major cytochrome P450 isozymes (phenacetin (100 μM for 1A2), bupropion (50 μM for 2B6), diclofenac (20 μM for 2C9), mephenytoin (100 μM for 2C19), dextromethorphan (5 μM for 2D6), chlorzoxazone (50 μM for 2E1), and midazolam (5 μM for 3A4)) were prepared with phosphate buffer. […] Reactions were stopped at 15 min by the addition of 200 μl cold acetonitrile (containing propranolol as internal standard at 20 ng ml^−1) and centrifuged at 17,968×g for 10 min. A 2 μl aliquot of the supernatant was injected into the LC-MS/MS system. The ratio of peak area of test compound /internal standard was used to determine the % metabolic activity of probe substrate according to the concentrations of N-AS added.

[2] = target: T2, CYP 2E1 (Homo sapiens, UniProt P05181); experiment: as above; assay type: in vitro ADME
T2 construct: from tissue; host or cells: human liver microsomes
Procedure: as §1

[3] = target: T3, CYP 2D6 (Homo sapiens, UniProt P10635); experiment: as above; assay type: in vitro ADME
T3 construct: from tissue; host or cells: human liver microsomes
Procedure: as §1

[4] = target: T4, CYP 1A2 (Homo sapiens, UniProt P05177); experiment: as above; assay type: in vitro ADME
T4 construct: from tissue; host or cells: human liver microsomes
Procedure: as §1

[5] = target: T5, CYP 2B6 (Homo sapiens, UniProt P20813); experiment: as above; assay type: in vitro ADME
T5 construct: from tissue; host or cells: human liver microsomes
Procedure: as §1

[6] = target: T6, CYP 2C19 (Homo sapiens, UniProt P33261); experiment: as above; assay type: in vitro ADME
T6 construct: from tissue; host or cells: human liver microsomes
Procedure: as §1

[7] = target: T7, CYP 2C9 (Homo sapiens, UniProt P11712); experiment: as above; assay type: in vitro ADME
T7 construct: from tissue; host or cells: human liver microsomes
Procedure: as §1

[8] = system: neuron; experiment: immunofluorescence of ac-S565 and COX2 in primary cells; assay type: cell-based, C57BL/6 mice; details: Ab 10mM, replicates
Procedure: To confirm the generation and roles of N-AS in neurons, cells from E18 C57BL/6 mice were prepared as previously described. Cortices were dissected and then dissociated followed by incubation in papain (Worthington) at 37 °C for 15 min. Neurons were plated on poly-L-lysine-coated coverslips with neuronal culture medium, serum-free Neurobasal medium (Gibco) containing 2% B27 supplements (Gibco), 1 mM Glutamax supplement (Gibco), and 100 U ml^−1 streptomycin/ 100 U ml^−1 penicillin (Gibco) at 37 °C in a humidified atmosphere of 5% CO2. […] Primary astrocyte cultures were prepared from C57BL/6 mice as described previously. In brief, after removal of the meninges, postnatal day 7 (P7) mouse brain tissues were minced and incubated in a rocking water bath at 37 °C for 30 min in the presence of 0.25% trypsin-EDTA (Sigma-Aldrich). […] The human microglia treated with Aβ 1–42 and/or zileuton was incubated with N-AS (2.5 μM, 2 h, Sigma-Aldrich, 01912), and were analyzed for the generation and roles of N-AS.
Thioflavin S (Sigma-Aldrich) staining was carried out according to previously described procedures. […] The sections were analyzed with a laser-scanning confocal microscope (FV3000; Olympus) or with a BX51 microscope (Olympus). MetaMorph software (Molecular Devices) was used to quantification. Three-dimensional reconstruction of microglia was recorded and analyzed using IMARIS software (Bitplane)[11]. […]

T2 sequence (P05181 whole entry): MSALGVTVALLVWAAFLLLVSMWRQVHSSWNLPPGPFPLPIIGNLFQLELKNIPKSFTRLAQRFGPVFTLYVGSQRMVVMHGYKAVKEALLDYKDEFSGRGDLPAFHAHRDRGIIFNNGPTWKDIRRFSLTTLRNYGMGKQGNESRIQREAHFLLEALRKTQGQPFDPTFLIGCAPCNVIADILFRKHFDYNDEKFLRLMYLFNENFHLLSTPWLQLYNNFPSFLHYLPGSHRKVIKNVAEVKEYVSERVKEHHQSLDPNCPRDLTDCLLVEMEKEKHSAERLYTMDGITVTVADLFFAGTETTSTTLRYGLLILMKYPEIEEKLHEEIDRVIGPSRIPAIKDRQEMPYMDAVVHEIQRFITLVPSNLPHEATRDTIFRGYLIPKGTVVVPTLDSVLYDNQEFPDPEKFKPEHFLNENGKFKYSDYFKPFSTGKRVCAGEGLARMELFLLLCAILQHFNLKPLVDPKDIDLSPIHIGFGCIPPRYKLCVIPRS
T6 sequence (P33261 whole entry): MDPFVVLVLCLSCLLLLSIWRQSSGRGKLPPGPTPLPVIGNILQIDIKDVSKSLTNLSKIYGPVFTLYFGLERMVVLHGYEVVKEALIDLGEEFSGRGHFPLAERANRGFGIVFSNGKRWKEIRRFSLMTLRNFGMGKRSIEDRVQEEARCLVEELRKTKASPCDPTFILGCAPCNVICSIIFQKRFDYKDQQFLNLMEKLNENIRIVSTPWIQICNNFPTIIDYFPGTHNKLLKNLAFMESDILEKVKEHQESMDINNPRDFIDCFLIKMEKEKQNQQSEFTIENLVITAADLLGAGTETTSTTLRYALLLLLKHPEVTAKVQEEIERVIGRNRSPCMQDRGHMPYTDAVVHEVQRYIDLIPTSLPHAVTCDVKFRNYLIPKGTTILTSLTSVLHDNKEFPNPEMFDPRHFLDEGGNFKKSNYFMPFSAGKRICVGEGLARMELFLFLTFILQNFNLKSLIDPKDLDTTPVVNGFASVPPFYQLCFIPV
T5 sequence (P20813 whole entry): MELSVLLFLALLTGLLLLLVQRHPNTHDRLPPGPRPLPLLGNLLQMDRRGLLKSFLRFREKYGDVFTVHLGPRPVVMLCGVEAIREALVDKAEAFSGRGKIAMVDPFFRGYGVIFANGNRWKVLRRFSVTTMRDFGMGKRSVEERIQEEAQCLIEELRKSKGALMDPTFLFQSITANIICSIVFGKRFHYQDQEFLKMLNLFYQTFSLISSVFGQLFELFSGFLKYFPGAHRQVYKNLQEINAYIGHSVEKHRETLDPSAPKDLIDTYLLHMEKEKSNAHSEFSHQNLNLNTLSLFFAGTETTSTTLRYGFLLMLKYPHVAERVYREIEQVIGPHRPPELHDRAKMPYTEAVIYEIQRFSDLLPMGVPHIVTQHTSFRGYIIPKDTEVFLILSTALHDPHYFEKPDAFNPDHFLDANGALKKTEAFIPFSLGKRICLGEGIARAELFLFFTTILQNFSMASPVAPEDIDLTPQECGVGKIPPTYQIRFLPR
T1 sequence (P08684 whole entry): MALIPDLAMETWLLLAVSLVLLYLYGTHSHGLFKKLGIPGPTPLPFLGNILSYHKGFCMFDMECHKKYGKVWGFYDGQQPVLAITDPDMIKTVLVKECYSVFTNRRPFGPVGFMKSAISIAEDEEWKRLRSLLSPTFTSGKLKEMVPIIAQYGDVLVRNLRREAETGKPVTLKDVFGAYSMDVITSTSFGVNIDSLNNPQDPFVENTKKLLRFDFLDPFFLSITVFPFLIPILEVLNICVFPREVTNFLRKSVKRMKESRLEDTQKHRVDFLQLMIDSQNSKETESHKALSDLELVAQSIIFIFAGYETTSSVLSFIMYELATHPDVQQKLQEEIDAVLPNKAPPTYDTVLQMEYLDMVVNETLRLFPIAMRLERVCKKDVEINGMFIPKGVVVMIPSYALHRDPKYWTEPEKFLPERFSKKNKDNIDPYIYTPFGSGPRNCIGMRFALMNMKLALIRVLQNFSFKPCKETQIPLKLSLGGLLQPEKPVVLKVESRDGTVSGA
T7 sequence (P11712 whole entry): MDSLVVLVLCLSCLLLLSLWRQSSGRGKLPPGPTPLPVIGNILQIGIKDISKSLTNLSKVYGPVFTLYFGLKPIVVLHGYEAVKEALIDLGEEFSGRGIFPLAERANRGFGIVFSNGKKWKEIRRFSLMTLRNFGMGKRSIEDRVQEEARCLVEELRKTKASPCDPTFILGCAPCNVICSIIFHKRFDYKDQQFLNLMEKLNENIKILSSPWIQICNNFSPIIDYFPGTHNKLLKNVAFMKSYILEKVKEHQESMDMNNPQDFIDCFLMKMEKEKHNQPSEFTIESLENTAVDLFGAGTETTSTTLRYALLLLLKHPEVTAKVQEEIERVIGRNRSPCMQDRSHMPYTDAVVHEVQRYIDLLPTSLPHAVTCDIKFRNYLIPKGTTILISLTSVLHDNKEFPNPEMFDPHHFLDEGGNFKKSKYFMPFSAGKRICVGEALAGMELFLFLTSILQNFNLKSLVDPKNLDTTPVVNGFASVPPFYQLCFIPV
T3 sequence (P10635 whole entry): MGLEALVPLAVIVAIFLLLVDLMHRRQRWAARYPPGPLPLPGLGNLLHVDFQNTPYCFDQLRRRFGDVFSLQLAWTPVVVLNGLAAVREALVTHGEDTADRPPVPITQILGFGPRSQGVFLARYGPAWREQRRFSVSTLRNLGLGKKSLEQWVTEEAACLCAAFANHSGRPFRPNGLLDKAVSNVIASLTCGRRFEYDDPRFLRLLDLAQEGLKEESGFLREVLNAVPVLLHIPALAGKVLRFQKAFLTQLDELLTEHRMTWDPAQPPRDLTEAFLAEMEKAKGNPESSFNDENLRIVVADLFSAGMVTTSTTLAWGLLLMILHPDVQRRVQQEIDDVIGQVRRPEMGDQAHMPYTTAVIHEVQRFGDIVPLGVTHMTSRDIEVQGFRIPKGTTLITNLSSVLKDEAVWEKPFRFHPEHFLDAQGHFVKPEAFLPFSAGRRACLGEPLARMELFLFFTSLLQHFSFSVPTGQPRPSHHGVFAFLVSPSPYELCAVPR
T4 sequence (P05177 whole entry): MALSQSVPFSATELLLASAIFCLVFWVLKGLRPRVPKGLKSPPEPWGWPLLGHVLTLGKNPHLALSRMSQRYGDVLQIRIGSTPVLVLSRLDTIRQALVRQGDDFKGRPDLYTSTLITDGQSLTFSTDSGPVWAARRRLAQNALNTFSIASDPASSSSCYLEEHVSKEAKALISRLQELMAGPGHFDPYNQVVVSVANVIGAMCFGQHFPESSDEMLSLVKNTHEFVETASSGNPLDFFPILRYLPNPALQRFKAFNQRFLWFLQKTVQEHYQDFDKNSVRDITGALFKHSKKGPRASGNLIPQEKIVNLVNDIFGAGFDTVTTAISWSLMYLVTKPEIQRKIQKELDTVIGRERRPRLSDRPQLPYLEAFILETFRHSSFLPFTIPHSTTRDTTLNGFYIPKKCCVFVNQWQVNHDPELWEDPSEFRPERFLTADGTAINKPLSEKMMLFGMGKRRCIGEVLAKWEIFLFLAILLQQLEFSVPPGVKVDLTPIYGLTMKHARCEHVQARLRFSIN

IC50 [1] [µM] | activity at 15 min, 25 µM ([1]; human, liver microsomes, pH 7.4, probe midazolam, N-AS 25 µM, read-out: % of control at 25 µM) [%] | IC50 [2] [µM] | activity at 15 min, 25 µM ([2]; human, liver microsomes, pH 7.4, probe chlorzoxazone, N-AS 25 µM, read-out: % of control at 25 µM) [%] | IC50 [3] [µM] | activity at 15 min, 25 µM ([3]; human, liver microsomes, pH 7.4, probe dextromethorphan, N-AS 25 µM, read-out: % of control at 25 µM) [%] | IC50 [4] [µM] | activity at 15 min, 25 µM ([4]; human, liver microsomes, pH 7.4, probe phenacetin, N-AS 25 µM, read-out: % of control at 25 µM) [%] | IC50 [5] [µM] | activity at 15 min, 25 µM ([5]; human, liver microsomes, pH 7.4, probe bupropion, N-AS 25 µM, read-out: % of control at 25 µM) [%] | IC50 [6] [µM] | activity at 15 min, 25 µM ([6]; human, liver microsomes, pH 7.4, probe mephenytoin, N-AS 25 µM, read-out: % of control at 25 µM) [%] | IC50 [7] [µM] | activity at 15 min, 25 µM ([7]; human, liver microsomes, pH 7.4, probe diclofenac, N-AS 25 µM, read-out: % of control at 25 µM) [%] | Compound | ac-S565 with COX2, immunofluorescence quantification (Fig 3c) [8]
> 10 | 114 | > 10 | 84 | > 10 | 104 | > 10 | 94.6 | > 10 | 92.7 | > 10 | 79.6 | > 10 | 95.5 | CCCCCCCCCCCCC/C=C/[C@@H](O)[C@H](CO)NC(C)=O [N-AS, N-((2S,3R,E)-1,3-Dihydroxyoctadec-4-en-2-yl)acetamide] | 
 |  |  |  |  |  |  |  |  |  |  |  |  |  | Ab: Aβ 1–42 (Invitrogen, 03112) used to induce an AD environment in cells | 0.191 and 0.165 and 0.09731 and 0.2737 and 0.2437 and 0.2571
